pIC50: −log10 of the molar value.
Legend:
Balb/c mice, TBI 6.5 Gy = experiment: Survival in extreme LD100 TBI murine model (6.5 Gy); assay type: in vivo, mouse; settings: for Survival: 250 mg/kg/day 16 days
Protocol: Animals were treated orally with phosphate-buffered saline or EC-18 at 250 mg/kg/day for 16 days.

[1] = Whole-body autoradiography of rats after single oral [14C]EC-18; assay type: in vivo, rat; settings: 200 mg/kg oral
Protocol: Male albino rats in fasted conditions were administered a single dose of [^14C]EC-18 (oral dose of 200 mg/kg, vehicle: olive oil). The distribution and levels of radioactivity in the body were observed by whole-body autoradiography performed at 0.25, 1, 8, and 24 hrs after [^14C]EC-18 administration.

OATP1B1 = biological target: T1, OATP1B1 (Homo sapiens, UniProt Q9Y6L6); experiment: Drug transporter inhibition, OATP1B1; assay type: in vitro ADME; settings: 100 nM [3H] estrone-3-sulfate; transfected HEK-293 cells
T1 construct: expressed in transfected cells; host or cells: HEK-293
Protocol: (§1) This study examined the potential of EC-18 to interact with the transporter proteins that have been known to be involved in the absorption of commercially available drugs. EC-18 was pre-incubated with HEK-293 cells and LLC-PK1 cells that were transfected with the genes of most drug transporters as follows: OATP1B1, OATP1B3, OAT1, OAT3 and OCT2, and BCRP and P-gp, respectively.

CYP2C19 = CYP2C19 (Homo sapiens, UniProt P33261); experiment: CYP enzyme inhibition in human liver microsomes, CYP2C19
Text: CYP1A2, CYP2C9, CYP2C19, CYP2D6, and CYP3A4 are the CYP subfamily, which plays a critical role in the metabolism of most drugs.

Sprague Dawley rats = experiment: Respiratory function in rats; assay type: in vivo, rat; settings: single oral doses up to 2000 mg/kg
Protocol: EC-18 was orally administered to Sprague Dawley rats (n=6 males/group) at single doses of 0, 500, 1000 and 2000 mg/kg. Tidal volume, respiration rate per minute and minute volume were measured with whole-body plethysmograph at 0 (pre-dose), 1, 2 and 4-hr post-dose.

NZW rabbit = experiment: Embryo-fetal developmental toxicity study, NZW rabbit; assay type: in vivo; settings: Oral 13 days
Text: (§2) Various toxicology studies have been performed. All studies were GLP-compliant unless otherwise noted.

[2] = as above; assay type: in vivo; settings: NZW, rabbit, in vivo; definitive study; Oral 13 days
Text: as §2

ICR mice = experiment: CNS function in mice (Irwin test); assay type: in vivo, mouse; settings: single oral doses up to 2000 mg/kg; 4 hrs
SD rat = experiment: Single-dose toxicity, SD rat; assay type: in vivo
Text: as §2

[3] = In vitro plasma stability, human plasma; assay type: in vitro ADME; settings: Humans; 1 μM; 37° C.; n=3
Protocol: To assess the stability of EC-18 in plasma, the test material, or the standard reference material (test concentration 1 μM) was mixed with rat and human plasma and allowed to react for 1 hr at 37° C. Then, the residual EC-18 concentration was measured by LC-MS/MS. As standard reference materials, albendazole (a drug with high plasma stability) and vinpocetine (a drug with low plasma stability) were tested in parallel. When allowed to react with rat and human plasma for 1 hr, the residual EC-18 concentration in both rat and human plasma was >99% of the initial dose.

[4] = system: S. typhi-murium (TA98, TA100, TA1535, TA1537), E. coli (WP2uvrA(pKM101)); assay type: cell-based; settings: in vitro; 48 hr; 312.5-5000 μg/plate
Text: as §2

OATP1B3 = biological target: T2, OATP1B3 (Homo sapiens, UniProt Q9NPD5); experiment: Drug transporter inhibition, OATP1B3; assay type: in vitro ADME; settings: 100 nM [3H] estradiol-17β-D-glucuronide; transfected HEK-293 cells
T2 construct: expressed in transfected cells; host or cells: HEK-293
Protocol: as §1

[5] = system: HaCaT (human keratinocyte) cells; experiment: Radiation-induced DAMP (HMGB1) release from HaCaT cells; assay type: cell-based; settings: γ-irradiated HaCaT cells
Protocol: The radiation-induced DAMP removal was evaluated in HaCaT (human keratinocyte) cells exposed with γ-radiation from a ^60Co radiation source (0.833 Gy/minute). As one type of DAMPs, high-mobility group box 1 (HMGB1) was used as a biomarker to establish the mitigating effect of EC-18 against radiation. HMGB1 proportionally secreted as the radiation dosage (5 to 10 Gy) and exposure time (24 to 48 hrs) increased (FIG. 33A).

EGFR = experiment: Western blot of EGFR activity, comparison to G-CSF; assay type: cell-based; settings: cells stimulated with neutrophil or G-CSF-activated neutrophils
Protocol: The effects of EC-18 in comparison to G-CSF to cells after γ-radiation were measured by western blot (FIG. 25). The experiment can i) show correlation between EGFR activity and the abnormal growth and metastasis induction of breast cancer cells in the TAN environment and ii) confirm inhibitory effect mechanism by PLAG treatment in this condition. In fact, it was confirmed that EGFR activity was increased in the groups stimulated with neutrophil or G-CSF-activated neutrophils, however, the activity of EGFR (Phosphorylation of EGFR) was decreased in the group treated with PLAG. FIG. 26 can show effects of PLAG in comparison to G-CSF.

OAT1 = biological target: T3, OAT1 (Homo sapiens, UniProt Q4U2R8); experiment: Drug transporter inhibition, OAT1; assay type: in vitro ADME; settings: 100 nM [3H] para-aminohippuric acid; transfected HEK-293 cells
T3 construct: expressed in transfected cells; host or cells: HEK-293
Protocol: as §1

T3 sequence (Q4U2R8 whole entry, species assumed): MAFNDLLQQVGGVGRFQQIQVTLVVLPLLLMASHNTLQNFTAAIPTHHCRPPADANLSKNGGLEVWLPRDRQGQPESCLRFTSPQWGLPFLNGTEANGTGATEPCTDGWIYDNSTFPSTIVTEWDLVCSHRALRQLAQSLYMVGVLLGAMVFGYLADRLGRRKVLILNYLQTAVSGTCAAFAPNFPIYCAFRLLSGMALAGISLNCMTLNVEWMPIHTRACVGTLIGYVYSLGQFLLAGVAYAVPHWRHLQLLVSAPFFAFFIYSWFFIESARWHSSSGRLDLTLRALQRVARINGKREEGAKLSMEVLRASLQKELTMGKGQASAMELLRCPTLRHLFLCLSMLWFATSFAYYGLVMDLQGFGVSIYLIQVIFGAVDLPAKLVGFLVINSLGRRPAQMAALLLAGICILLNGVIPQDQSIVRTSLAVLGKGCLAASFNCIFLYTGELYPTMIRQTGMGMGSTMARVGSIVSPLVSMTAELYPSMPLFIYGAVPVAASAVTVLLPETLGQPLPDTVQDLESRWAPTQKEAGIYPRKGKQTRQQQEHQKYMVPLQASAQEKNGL
T2 sequence (Q9NPD5 whole entry, species assumed): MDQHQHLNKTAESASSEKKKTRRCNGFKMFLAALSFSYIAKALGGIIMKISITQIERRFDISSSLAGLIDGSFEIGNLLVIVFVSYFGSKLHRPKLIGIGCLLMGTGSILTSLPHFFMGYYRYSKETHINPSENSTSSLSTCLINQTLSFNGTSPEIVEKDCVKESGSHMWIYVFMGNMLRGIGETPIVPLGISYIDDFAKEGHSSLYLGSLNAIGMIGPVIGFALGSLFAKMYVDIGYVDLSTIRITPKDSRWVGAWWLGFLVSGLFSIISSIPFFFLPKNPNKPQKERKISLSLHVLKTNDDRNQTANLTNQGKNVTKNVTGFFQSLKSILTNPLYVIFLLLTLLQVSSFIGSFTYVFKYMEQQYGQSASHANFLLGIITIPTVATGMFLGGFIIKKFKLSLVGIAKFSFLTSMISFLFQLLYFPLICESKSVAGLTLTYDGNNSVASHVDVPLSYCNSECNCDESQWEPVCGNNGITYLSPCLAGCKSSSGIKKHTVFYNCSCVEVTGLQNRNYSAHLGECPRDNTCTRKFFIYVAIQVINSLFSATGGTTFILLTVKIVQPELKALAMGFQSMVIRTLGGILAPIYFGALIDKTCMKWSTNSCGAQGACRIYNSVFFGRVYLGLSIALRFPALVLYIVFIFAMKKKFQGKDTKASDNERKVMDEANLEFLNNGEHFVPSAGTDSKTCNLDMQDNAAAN
CYP2C19, sequence (P33261 whole entry): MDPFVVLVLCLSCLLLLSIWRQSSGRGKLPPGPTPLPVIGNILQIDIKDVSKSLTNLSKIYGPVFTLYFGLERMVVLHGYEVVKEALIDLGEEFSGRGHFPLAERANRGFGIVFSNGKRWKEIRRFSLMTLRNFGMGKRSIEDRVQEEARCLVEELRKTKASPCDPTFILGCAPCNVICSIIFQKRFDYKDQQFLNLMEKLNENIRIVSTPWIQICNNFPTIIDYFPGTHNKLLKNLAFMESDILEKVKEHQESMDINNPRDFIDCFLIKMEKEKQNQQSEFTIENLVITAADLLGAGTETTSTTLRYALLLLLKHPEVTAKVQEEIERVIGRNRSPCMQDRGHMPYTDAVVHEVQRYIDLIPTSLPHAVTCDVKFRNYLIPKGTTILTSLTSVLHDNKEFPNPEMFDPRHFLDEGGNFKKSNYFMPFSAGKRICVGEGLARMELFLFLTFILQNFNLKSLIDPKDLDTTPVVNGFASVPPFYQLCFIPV
T1 sequence (Q9Y6L6 whole entry, species assumed): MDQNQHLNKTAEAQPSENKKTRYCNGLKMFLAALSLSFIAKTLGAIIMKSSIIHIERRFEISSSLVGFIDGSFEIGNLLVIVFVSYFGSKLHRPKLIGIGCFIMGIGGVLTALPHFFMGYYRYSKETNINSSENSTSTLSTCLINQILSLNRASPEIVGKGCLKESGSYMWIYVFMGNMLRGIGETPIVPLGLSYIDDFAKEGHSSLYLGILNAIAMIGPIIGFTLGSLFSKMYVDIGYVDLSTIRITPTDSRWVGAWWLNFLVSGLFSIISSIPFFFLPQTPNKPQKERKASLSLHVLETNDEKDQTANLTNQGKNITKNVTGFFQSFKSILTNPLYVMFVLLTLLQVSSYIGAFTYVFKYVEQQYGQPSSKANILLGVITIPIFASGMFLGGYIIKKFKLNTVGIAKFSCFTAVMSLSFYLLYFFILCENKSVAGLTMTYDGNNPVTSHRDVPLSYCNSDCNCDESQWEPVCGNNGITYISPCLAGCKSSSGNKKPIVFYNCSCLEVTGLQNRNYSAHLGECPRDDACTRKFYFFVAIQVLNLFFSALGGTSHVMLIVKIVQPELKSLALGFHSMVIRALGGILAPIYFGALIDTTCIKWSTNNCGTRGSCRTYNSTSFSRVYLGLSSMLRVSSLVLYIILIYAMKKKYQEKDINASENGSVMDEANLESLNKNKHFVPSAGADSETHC

Question: Which results are given for `CCCCC/C=C\C/C=C\CCCCCCCC(=O)OC(COC(C)=O)COC(=O)CCCCCCCCCCCCCCC` (centres unmarked) [EC-18, 1-palmitoyl-2-linoleoyl-3-acetylglycerol]?
Answer: signs of subcutaneous hemorrhage (Balb/c mice, TBI 6.5 Gy; 250 mg/kg/day): markedly improved; Survival (Balb/c mice, TBI 6.5 Gy; started 24-hr post-irradiation): 65%; Survival (Balb/c mice, TBI 6.5 Gy; started 48-hr post-irradiation): 25%; time to elimination [1]: ≤ 24 h; pIC50 (OATP1B1): < 4.49; pIC50 (CYP2C19): 4.08; respiratory function (Sprague Dawley rats): did affect the respiratory function; findings (NZW rabbit; DRF study, 0, 125, 250, 500 mg/kg): No specific findings; mortality (NZW rabbit; DRF study, 250 mg/kg dose group, day 8 of pregnancy, attributed to loss of appetite before dosing): A single case of death; mortality (NZW rabbit; definitive study, 0, 125, 250, 500 mg/kg): No dead animals; NOAEL at 13 days [2]: 500 mg/kg/day; CNS function (Irwin test) (ICR mice): did not affect the CNS function; Approximate lethal dose (SD rat; Oral): dose: >2000 mg/kg; mortality (SD rat; Oral, 0, 2000 mg/kg): No dead animals; Residual Concentration Relative to the Initial Dose After Reaction for 1 hr in Plasma [3]: >99%; induction of reverse mutation [4]: No potential of EC-18; pIC50 (OATP1B3): < 4.49; HMGB1 release [5]: less HMGB1 released in a dose-dependent manner; activity of EGFR (Phosphorylation of EGFR) (EGFR): decreased; pIC50 (OAT1): < 4.49
